Data from patent US6127342A, “Method for preventing or treating a lung disease caused by active oxygen and free radical injury” (Teijin Limited, priority 1991, dated 2000).

Legend:
Assay type in all cases: in vivo
[1] = system: coronary ischemia-reperfusion model using dogs; assay: Arrhythmia during coronary ischemia and reperfusion (electrocardiogram); details: dog; for Number of Ventricular Premature Beats, 1 Hour of Reperfusion / Total Duration of Ventricular Tachycardia, 1 Hour of Reperfusion / effect on total duration of ventricular tachycardia during reperfusion / occurrence of arrhythmia (ventricular premature beats) during reperfusion: 10 mg/kg i.v. just before reperfusion; for Number of Ventricular Premature Beats, 2 Hours of Ischemia / Total Duration of Ventricular Tachycardia, 2 Hours of Ischemia: during 2 h ischemia, before the drug was given
Experimental: After anesthetizing 52 adult mongrel dogs of either sex weighing ca. 10 kg by intraperitoneal administration of 50 mg/kg of sodium pentobarbital, breathing tubes were immediately intubated endotracheally and artificial ventilation was continued using a Harvard ventilator. Electrocardiogram electrodes were attached, and monitoring and recording were continued throughout the experiment. Following insertion of cannulas in the right femoral vein and right femoral artery, the cannulas were used for continuous intravenous drip of physiological saline to replenish water or administration of the test preparation, and monitoring of arterial blood pressure, respectively. After performing left thoracotomy in the fourth or fifth intercostal space, the pericardium was torn to expose the heart. Ischemia was induced by ligating the left anterior descending coronary artery immediately distal to the first diagonal branch, while reperfusion was performed by subsequently removing that ligation.
The animals were divided into four groups. Group 1 (n=9) was subjected to ischemia for 2 hours, group 2 (n=17) was subjected to ischemia for 2 hours followed by reperfusion for 1 hour, group 3 (n=10) was subjected to ischemia for 2 hours followed by reperfusion for 1 hour plus intravenous injection of 10 mg/kg of γ-GCE just before reperfusion, and group 4 (n=16) was subjected to 2 hours of ischemia followed by 1 hour of reperfusion plus intravenous injection of 10 mg/kg of reduced glutathione (GSH, control drug) just before reperfusion.
Evaluation of arrhythmia was performed by analyzing the electrocardiogram to determine the presence of arrhythmia, or in other words, the number of ventricular premature beats, as well as the total duration of ventricular tachycardia, which was defined as more than three successive ventricular premature beats.

[2] = system: liver ischemia-reperfusion model using rats; assay: Adenine nucleotides in hepatic vein immediately after starting reperfusion; details: rat; 50 mg/kg i.v.
Experimental: Male Wister rats weighing 250-300 g were fasted with free access to water 24 hours before the experiment. Seventy-two rats were divided into three groups of 24 animals each, i.e., the control group, the GSH administration group and the γ-GCE-administration group. Each rat was anesthetized by intraperitoneal administration of 40 mg/0.8 ml/kg of sodium pentobarbital, and the femoral vein was cannulated. In the GSH group and the γ-GCE group, 50 mg/kg of GSH or γ-GCE respectively were administered intravenously. Physiological saline was then infused for volume replacement in each group, as a continuous intravenous infusion at a rate of 0.8 ml/hr with an injection pump throughout the experiment. Thirty minutes after starting injection of physiological saline, the abdomon was opened by a midline incision and the liver hilus was exposed. According to the method described by Hasselgren, et al. in J. Surg. Res., Vol. 34, pp. 409-414, 1984, all vessels to the left and median lobes of the liver, more specifically, hepatic artery, portal vein and the bile duct, were clamped to produce an ischemic state for 2 hours. Since blood vessels to the remaining parts of the liver were not occluded by this method, poral stasis could be avoided which was of special relevance for circulation stability in rats. Thereafter, occlusion of all vessels was released by removing the clamp to allow reperfusion for 1 hour. The abdominal walls were closed during ischemia and reperfusion. […]
Evaluation of ischemia-reperfusion injury was performed by measuring liver tissue (1) mitochondrial function, (2) glutathione concentration, (3) adenine nucleotides concentration, and (4) lipid peroxide concentration, as well as liver tissue derived (5) adenine nucleotides concentration in the hepatic vein immediately after starting reperfusion, and (6) liver cell enzyme activities in the blood after 1 hour of reperfusion. More specifically, the mitochondrial function in (1) was measured according to the method described by Chance, et al. in Adv. […] In addition, the quantitative determination of glutathione in (2) was performed using the same method as Experiment 1 on supernatant obtained by adding 10 vol/g of tissue weight of 2.5% (w/v) sulfosalicylic acid dihydrate aqueous solution to the liver tissue followed by homogenization and centrifugation. In addition, the quantitative determination of adenine nucleotides in (3) was performed by neutralizing the perchloric acid extract of the liver tissue with potassium hydroxide followed by removal of the precipitate and applying to an ion exchange HPLC column according to the method described by Sugino, et al. in J. Chromatogr., Vol. 361, pp. 427-431, 1986. […]

[3] = system: cardiac muscle mitochondria; assay: Cardiac muscle mitochondrial function (St. III O2, RCI) after coronary ischemia-reperfusion; details: dog; 10 mg/kg i.v. just before reperfusion; FIGS. 1A and 1B
Source text: Electrocardiogram electrodes were attached, and monitoring and recording were continued throughout the experiment. Following insertion of cannulas in the right femoral vein and right femoral artery, the cannulas were used for continuous intravenous drip of physiological saline to replenish water or administration of the test preparation, and monitoring of arterial blood pressure, respectively. After performing left thoracotomy in the fourth or fifth intercostal space, the pericardium was torn to expose the heart. Ischemia was induced by ligating the left anterior descending coronary artery immediately distal to the first diagonal branch, while reperfusion was performed by subsequently removing that ligation. The animals were divided into four groups. […] Mitochondria was obtained by removing the heart immediately after the end of ischemia or reperfusion, washing with cold physiological saline, promptly cutting out the ischemic or reperfused area and the normal area, and immediately performing preparation from the respective area according to the method described by […], et al. in Arch. Biochem. Biophys., Vol. 94, pp. 148-155, 1961. The glutathione content of the mitochondria was measured by applying the method described by Tietze in Anal. […] Evaluation of mitochondrial function was performed according to the method described by Sugiyama, et al. in Am. […]

[4] = system: liver ischemia-reperfusion model using rats; assay: Glutathione concentration in liver tissue during liver ischemia-reperfusion; details: rat, 50 mg/kg i.v.
Experimental: Male Wister rats weighing 250-300 g were fasted with free access to water 24 hours before the experiment. Seventy-two rats were divided into three groups of 24 animals each, i.e., the control group, the GSH administration group and the γ-GCE-administration group. Each rat was anesthetized by intraperitoneal administration of 40 mg/0.8 ml/kg of sodium pentobarbital, and the femoral vein was cannulated. In the GSH group and the γ-GCE group, 50 mg/kg of GSH or γ-GCE respectively were administered intravenously. Physiological saline was then infused for volume replacement in each group, as a continuous intravenous infusion at a rate of 0.8 ml/hr with an injection pump throughout the experiment. Thirty minutes after starting injection of physiological saline, the abdomon was opened by a midline incision and the liver hilus was exposed. According to the method described by Hasselgren, et al. in J. Surg. Res., Vol. 34, pp. 409-414, 1984, all vessels to the left and median lobes of the liver, more specifically, hepatic artery, portal vein and the bile duct, were clamped to produce an ischemic state for 2 hours. Since blood vessels to the remaining parts of the liver were not occluded by this method, poral stasis could be avoided which was of special relevance for circulation stability in rats. Thereafter, occlusion of all vessels was released by removing the clamp to allow reperfusion for 1 hour. The abdominal walls were closed during ischemia and reperfusion.
Using 18 rats in each group, the livers of 6 animals from each group were removed before ischemia, after 2 hours of ischemia, and after 1 hour of reperfusion, respectively. A portion of the liver from each animal was rapidly frozen in liquid nitrogen and used for measurement of glutathione,adenine nucleotides and lipid peroxide. From the remaining portion of the liver, mitochondria was immediately extracted according to the method described by Hogeboom and Schneider in the J. Biol. Chem., Vol. 172, p. 619, 1948. In other experiments, immediately after starting reperfusion, blood from the hepatic vein was collected using 6 rats from each group. These blood samples were then used to measure leaked adenine nucleotides. In addition, after 1 hour of said reperfusion, blood samples were also drawn, which were then used to measure the activity of the leaked liver cell enzymes.
Evaluation of ischemia-reperfusion injury was performed by measuring liver tissue (1) mitochondrial function, (2) glutathione concentration, (3) adenine nucleotides concentration, and (4) lipid peroxide concentration, as well as liver tissue derived (5) adenine nucleotides concentration in the hepatic vein immediately after starting reperfusion, and (6) liver cell enzyme activities in the blood after 1 hour of reperfusion. More specifically, the mitochondrial function in (1) was measured according to the method described by Chance, et al. in Adv. Enzymol., Vol. 17, p. 65, 1956. In addition, the quantitative determination of glutathione in (2) was performed using the same method as Experiment 1 on supernatant obtained by adding 10 vol/g of tissue weight of 2.5% (w/v) sulfosalicylic acid dihydrate aqueous solution to the liver tissue followed by homogenization and centrifugation. In addition, the quantitative determination of adenine nucleotides in (3) was performed by neutralizing the perchloric acid extract of the liver tissue with potassium hydroxide followed by removal of the precipitate and applying to an ion exchange HPLC column according to the method described by Sugino, et al. in J. Chromatogr., Vol. 361, pp. 427-431, 1986. In addition, the measurement of lipid peroxide in (4) was performed according to the thiobarbiturate method described by Ohkawa, et al. in Anal. Biochem., Vol. 95, p. 351, 1979. […]

[5] = system: liver ischemia-reperfusion model using rats; assay: Liver lipid peroxide concentration (thiobarbiturate method); details: rat; 50 mg/kg i.v.; after 1 hour reperfusion
Experimental: Male Wister rats weighing 250-300 g were fasted with free access to water 24 hours before the experiment. Seventy-two rats were divided into three groups of 24 animals each, i.e., the control group, the GSH administration group and the γ-GCE-administration group. Each rat was anesthetized by intraperitoneal administration of 40 mg/0.8 ml/kg of sodium pentobarbital, and the femoral vein was cannulated. In the GSH group and the γ-GCE group, 50 mg/kg of GSH or γ-GCE respectively were administered intravenously. Physiological saline was then infused for volume replacement in each group, as a continuous intravenous infusion at a rate of 0.8 ml/hr with an injection pump throughout the experiment. Thirty minutes after starting injection of physiological saline, the abdomon was opened by a midline incision and the liver hilus was exposed. […]
Evaluation of ischemia-reperfusion injury was performed by measuring liver tissue (1) mitochondrial function, (2) glutathione concentration, (3) adenine nucleotides concentration, and (4) lipid peroxide concentration, as well as liver tissue derived (5) adenine nucleotides concentration in the hepatic vein immediately after starting reperfusion, and (6) liver cell enzyme activities in the blood after 1 hour of reperfusion. More specifically, the mitochondrial function in (1) was measured according to the method described by Chance, et al. in Adv. […]

| SMILES | Number of Ventricular Premature Beats, 1 Hour of Reperfusion [1] | Total Duration of Ventricular Tachycardia, 1 Hour of Reperfusion [1] [s] | effect on total duration of ventricular tachycardia during reperfusion [1] | occurrence of arrhythmia (ventricular premature beats) during reperfusion [1] | Number of Ventricular Premature Beats, 2 Hours of Ischemia [1] | Total Duration of Ventricular Tachycardia, 2 Hours of Ischemia [1] [s] | Adenine nucleotides concentration in hepatic vein immediately after starting reperfusion [2] [μmol/L serum] | effect on reduction in cardiac muscle mitochondrial function (St. III O2, RCI) during reperfusion [3] | Liver tissue glutathione, GSH + GSSG, after 1 hour reperfusion [4] | Liver tissue glutathione, GSH, after 1 hour reperfusion [4] | Liver tissue glutathione, GSSG, after 1 hour reperfusion [4] | Liver tissue glutathione, GSH + GSSG, after 2 hours ischemia [4] | Liver tissue glutathione, GSH, after 2 hours ischemia [4] | Liver tissue glutathione, GSSG, after 2 hours ischemia [4] | Liver tissue glutathione, GSH + GSSG, before ischemia [4] | Liver tissue glutathione, GSH, before ischemia [4] | Liver tissue glutathione, GSSG, before ischemia [4] | Concentration of liver lipid peroxide following reperfusion [5] [nmol/mg protein] | other results |
| --- | --- | --- | --- | --- | --- | --- | --- | --- | --- | --- | --- | --- | --- | --- | --- | --- | --- | --- | --- |
| N[C@@H](CCC(=O)N[C@@H](CS)C(=O)NCC(=O)O)C(=O)O [GSH, reduced glutathione, reference compound] | 1731 ± 1574 | 983 ± 959 | did not show such effect whatsoever | not suppressed at all | 42 ± 43 | 1 ± 2 | 3.59 ± 1.28 | no protective effects were observed whatsoever | 3.77 ± 0.64 μmol/g of liver wet weight | 3.40 ± 0.60 μmol/g of liver wet weight | 0.37 ± 0.05 μmol/g of liver wet weight | 4.40 ± 0.68 μmol/g of liver wet weight | 4.35 ± 0.65 μmol/g of liver wet weight | 0.35 ± 0.04 μmol/g of liver wet weight | 5.29 ± 0.38 μmol/g of liver wet weight | 4.91 ± 0.35 μmol/g of liver wet weight | 0.38 ± 0.06 μmol/g of liver wet weight | 9.1±2.0 | effect on leakage of adenine nucleotides into the hepatic vein [2]: did not significantly mitigate the leakage; liver glutathione concentration after reperfusion relative to the level prior to ischemia [4]: ~70% |
| CCOC(=O)[C@H](CS)NC(=O)CC[C@H](N)C(=O)O [γ-GCE, γ-L-glutamyl-L-cysteine ethyl ester] | 32 ± 30 | 3 ± 5 | remarkably suppressed its increase during reperfusion | strikingly suppressed | 40 ± 51 | 1 ± 2 | 1.96 ± 0.80 | completely suppressed | 5.50 ± 0.26 μmol/g of liver wet weight | 4.97 ± 0.25 μmol/g of liver wet weight | 0.54 ± 0.09 μmol/g of liver wet weight | 5.87 ± 0.43 μmol/g of liver wet weight | 5.48 ± 0.42 μmol/g of liver wet weight | 0.39 ± 0.01 μmol/g of liver wet weight | 6.04 ± 0.35 μmol/g of liver wet weight | 5.65 ± 0.30 μmol/g of liver wet weight | 0.39 ± 0.07 μmol/g of liver wet weight | 6.56±0.6 | reduction of leakage of adenine nucleotides into the hepatic vein immediately after starting reperfusion [2]: over 50%; decrease of liver glutathione concentration throughout the experiment [4]: no significant decrease was observed throughout the experiment; liver glutathione concentration compared with control group or GSH administration group ([4]; throughout the experiment): significantly higher |
